Laboratory results reported in US10519132B2, “Isocorydine derivatives, preparation method and use thereof” (Lanzhou Institute of Chemical Physics, Chinese Academy of …, priority 2017, dated 2019).
Where two headings read alike, the source gives them in different places.

Key:
[1] = test system: hepatocellular carcinoma in late stages; settings: background; cited from earlier work
[2] = test system: HepG2 cells; experiment: Cell cycle distribution by flow cytometry; assay type: cell-based, human; settings: sorafenib 5 μg/mL, FICD 10 μg/mL, combination 5 μg/mL FICD+10 μg/mL sorafenib
Method: 1 mL of 70% precooled (−20° C.) ethanol was added to the cell precipitate, homogenized by pipetting, and fixed at 4° C. overnight. On the second day, HepG2 cells was collected by centrifugation, 2 mL of precooled PBS was added for washing 3 times, 500 μL of PBS containing 50 μg/mL […] (PI) and 100 μg/mL RNaseA was added, and incubation was performed at 4° C. under protection from light for 30 min. Detection was performed on a flow cytometer, and results can be seen in FIG. 9 and FIG. 10.

[3] = test system: ascites hepatoma H22 induced solid tumor; experiment: In vivo tumor growth inhibition in mice bearing H22; parameters: species or system white Kunming mice; settings: sorafenib 50 mg/Kg
From the text: 1. Tumor strain and animal for experiments: H22 liver cancer cell strain was provided by Teaching and Research Office, School of Basic Medical Sciences, Lanzhou University/Key Lab of Preclinical Study for New Drugs of Gansu Province, and was passage and preserved by periodically intraperitoneal inoculation. White Kunming mice (18.0-22.0 g) were provided by Lanzhou Veterinary Institute, Chinese Academy of Agriculture.
(§1) 2. Establishment of tumor models and method of grouping: a third passage of mice which were well grown 7 d after intraperitoneal inoculation of H22 tumor cells were sacrificed by cervical dislocation, and placed and soaked in 75% alcohol for 10 min. After 3 mL of sterile physiological saline was intraperitoneally injected, milky tumor cell ascites was withdrawn from the abdominal cavity, and formulated into a tumor cell suspension with sterile physiological saline, with a cell number of 1.5×10^7 mL^−1. 80 white Kunming mice were taken, and 0.2 mL of the tumor cell suspension was subcutaneously inoculated to the left axilla of each mouse. 24 h after the inoculation of tumor cells, the mice were divided into 8 groups according to body weights, 10 mice for each group. […] All of the administration manners were intraperitoneal administration.
(§2) 3. Result of experiments: On the second day of modeling, continuous administration was performed for 10 d. Administration was stopped on the 11th d, and mice were sacrificed by cervical dislocation on the next day.
Test method: For the test method, see Example 24. Results can be seen in FIG. 15, FIG. 16, and Table 5.
(§3) Method: Modeling was performed by using the method of establishing H22 white mice tumor-bearing model of Example 24. The in vivo tumor growth inhibition activity of COM33 on H22 model mice was measured in an intraperitoneal injection administration manner.

[4] = test system: HepG2 cells; experiment: Apoptosis induction by laser confocal scanning microscope; assay type: cell-based, human; settings: HepG2, 48 h
Method: Two solutions (a former one and a later one) were mixed, centrifugation was performed at 1000 r/min for 5 min, the supernatant was discarded, and washing was performed for 3 times with PBS. The cell precipitate was resuspended in Binding Buffer, 10 μL of a FITC-Annen V staining liquid was added, homogenized by pipetting slightly, and reaction was performed under protection from light. PI was added for staining for 15 min, centrifugation was performed, the supernatant was discarded, and washing was performed for 3 times again with PBS. A glass slide was loaded by applying the cell precipitate thereto and mounted with non-fluorescent buffering glycerol, a laser confocal scanning microscope was immediately used for observation and taking photographs at wavelengths of 488 nm and 560 nm. Meanwhile, cells without AnneixnV-FITC and PI added were used as a negative control.

[5] = test system: HepG2 cells; experiment: Apoptosis induction, Annexin V and PI double-staining, flow cytometry; assay type: cell-based, human; settings: HepG2, 24 h; sorafenib 4 μg/mL; combination 4 μg/mL sorafenib+5 μg/mL FICD
Method: Different concentrations of FICD were added on the second day, culture was continued for 24 h, cells were collected and washed 3 times with precooled PBS, and adherent cells were digested with trypsin free of EDTA. The solutions were combined, centrifuged, and washed 3 times again with precooled PBS. 400 μL of solution containing 5 μL of V-FITC and 10 μL of PI was added, incubation was performed at room temperature under protection from light, and detection was performed by flowcytometry after 30 min.

[6] = test system: Vimentin; experiment: Western blotting, Vimentin expression in HepG2 cells; assay type: cell-based, human
Method: (§4) Method: Gel electrophoresis of protein samples. Gel formulation: All components were added to a small beaker according to a formulation of a separation gel, uniformly mixed with slightly shaking to prevent the generation of bubbles, quickly applied to a seam of a glass plate with a 1 mL pipette, and then blocked with double distilled water to prevent oxidation. After 30 min, the separation gel solidified, the double distilled water thereof was poured off, waster was suctioned with a filter paper, a 5% concentration gel was formulated, TEMED was finally loaded onto the glass plate, and a 1.0 mm comb was inserted into the concentration gel and placed at room temperature for 30 min. The comb was slightly, vertically, and carefully pulled up, various groups of 20 μL protein samples were pipetted with a microsyringe, an equal volume of a loading buffer and an equal volume of a loading buffer containing 3 μL of Marker were separately added to a loading well, an electrophoresis instrument was switched on after electrodes were plugged, gels were run at 75V for 30 min, and the voltage was changed to 120V and gels were run for 2 h when bromophenol blue reaches the separation gel. Membrane transfer: A PVDF membrane having a suitable size was cut according to the size of the gel, placed in a methanol solution for 1 min, lifted, and placed and soaked together with a well cut filter paper in a previously precooled membrane transfer buffer. A sponge pad, three layers of filter paper, a gel, three layers of filter paper, and a sponge pad, in this order from top to bottom, were placed in a membrane transfer tank, and a precooled membrane transfer buffer was then added. Several ice bags were placed circumferentially to prevent an excessively hot external environment, and electrodes were plugged and membrane transfer was performed at a constant current of […] for 2.5 hours. Blocking and incubation of antibodies: A transferred membrane was cut into desired bands, which were placed in a blocking solution of 5% skim milk powder, placed on a shaker, and shaken at room temperature at a low speed for 1 h. A primary antibody was diluted with the blocking solution, a corresponding antibody was pipetted and added to a zip lock bag, the PVDF membrane was then placed in the antibody dilution, bubbles in the zip lock bag were evacuated, and the zip lock bag was sealed and placed in a refrigerator at 4° C. overnight. The membrane was withdrawn from the zip lock bag on the second day, and placed in a clean dish. A TBST solution was added and washed 3 times on a low-speed shaker, 10 min for each time. […]

[7] = test system: C-Myc, Ki-67, CylinD1, β-Catenin protein; experiment: Western blotting, protein expression in HepG2 cells; assay type: cell-based, human; settings: sorafenib 4 μg/mL
Method: as §4

[8] = parameters: species or system white Kunming mice; settings: mouse, in vivo
Method: as §1, §2, §3

[9] = test system: human gastric cancer cell strain MGC-803; experiment: MTT growth inhibition on MGC-803;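 note: adherent cells exposed to compound over a concentration gradient for 24, 48 and 72 h, MTT absorbance at 490 nm, inhibition relative to untreated control wells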
Method: (§5) By using an MTT method, a sample solution to be tested was added to a 96-well plate in which cancer cells were adherently grown. Culturing was performed for a certain period, and the growth inhibition effect of a compound on a human cancer cell strain for primary screening was measured to determine the anti-cancer activity of the compound.
(§6) Cell culture: A cell incubator was set to conditions of 37° C., 5% CO2, and a saturated humidity, cells were cultured under these conditions, and the cell medium was a DMEM complete medium, wherein 10% fetal bovine serum, 100 IU/mL penicillin, and 100 μg/mL streptomycin were comprised.
(§7) The single cell suspension was diluted to 5×10^3/100 μL after counting, inoculated on a 96-well cell culture plate (triplicate), and adherently cultured overnight;
(§8) After 24 h of adhesion, the complete medium was discarded, 100 μL-sample-solutions to be tested having different concentrations were sequentially added to the 96-well plate according to a concentration gradient, and incubations were continued for 24 h, 48 h, and 72 h;
(§9) The culture liquid was discarded, a 0.5 mg/mL MTT diluted working liquid was added, and incubation was performed for 4 h by placing in an incubator;
(§10) The culture liquid was discarded, 100 μL of DMSO was added, low-speed oscillation was performed for 10 min by placing on a shaker, and the spectrophotometric value of each well was measured at a wavelength of 490 nm by using a microplate reader. Statistical analysis was performed and tumor cell growth inhibition rate was calculated according to the equation: Growth inhibition rate=(OD value of control group−OD value of experimental group)/OD value of control group.
(§11) Culturing was performed for a certain period, the growth inhibition effect of a compound on 3 human cancer cell strains for primary screening was measured to determine the anti-cancer activity of the compound, and a growth inhibition curve was plotted.

[10] = test system: human cervical cancer Hela cell strains; experiment: MTT growth inhibition on Hela;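 note: compound exposure of 24, 48 or 72 h in DMEM with 10% fetal bovine serum, MTT absorbance read at 490 nm, inhibition calculated relative to control group OD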
Method: as §5, §6, §7, §8, §9, §10, §11

[11] = background; cited from earlier work
[12] = test system: human liver cancer cell strain HepG2; experiment: MTT growth inhibition on HepG2; assay type: cell-based; settings: read-out: IC50 HepG2;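 note: adherent cells in 96-well plates treated with a concentration series for 24, 48 or 72 h, MTT absorbance read at 490 nm, inhibition computed relative to untreated control wells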
Method: as §5, §6, §7, §8, §9, §10, §11

[13] = test system: various HCC; settings: background; read-out: IC50 values, inhibition of tumor growth of various HCC; cited from earlier work

## CNC(=O)c1cc(Oc2ccc(NC(=O)Nc3ccc(Cl)c(C(F)(F)F)c3)cc2)ccn1 [Sorafenib, reference compound]
[1]
  elongation of overall survival time of an HCC patient: 2 months
[2]
  cell cycle distribution compared to the blank control group: cells significantly increased in the G0/G1 phase of the cell cycle and significantly decreased in the S phase
[3]; Table 4, intraperitoneal, 10 d
  Tumor inhibition rate (%): 55.8%
[3]; Table 6, intraperitoneal injection
  Tumor inhibition rate (%): 56.5%
[4]
  apoptosis and cell morphology, Anneixn V-FITC and PI double-staining: apoptoses occurred during various phases
[5]
  apoptosis rate: 29.33%
[6]; COM33 experiment (FIG. 17), combination compared to the sorafenib group
  Vimentin expression: expressed in all groups
[6]; FICD experiment (FIG. 12)
  Vimentin expression: significantly increased
[7]; high COM33 dosage 10.0 μg/mL, combination 4 μg/mL sorafenib+5.0 μg/mL COM33
  expressions of C-Myc, Ki-67, CylinD1 and β-Catenin protein compared to the blank control group: significantly reduced
[7]; high FICD dosage 20 μg/mL, combination 4 μg/mL sorafenib+10 μg/mL FICD
  expressions of C-Myc, Ki-67, CylinD1 and β-Catenin protein compared to the blank group: significantly reduced
[8]
  toxic and side effects on increased dosage: toxic and side effects of sorafenib would obviously occur, resulting in death of experimental animals

## COc1cc(N)c2c(c1O)-c1c(OC)c(OC)cc3c1[C@H](C2)N(C)CC3 [NICD, 8-amino-isocorydine, reference compound]
[9]; read-out: IC50 MGC-803, Table 2, MTT
  IC50: 62.1 µM
[10]; read-out: IC50 Hela, Table 2, MTT
  IC50: 44.1 µM
[11]
  stability on storage in an aqueous solution: cannot be stored in an aqueous solution for a long period
[12]; Table 2, MTT
  IC50: 51.1 µM

## COc1ccc2c(c1O)-c1c(OC)c(OC)cc3c1[C@H](C2)N(C)CC3 [ICD, isocorydine]
[9]; Homo sapiens, MGC-803, read-out: IC50 MGC-803
  IC50: 388 µM
[10]; Homo sapiens, HeLa, read-out: IC50 HeLa
  IC50: 581 µM
[12]; Homo sapiens, HepG2, Table 2, MTT
  IC50: 569 µM
[13]
  IC50: > 200 µM
